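All cell lines were grown in 96-well plates and treated with compound for 48 hours. At the GI50, growth is halved. TGI marks complete inhibition of growth.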
Tests used:
Experiment in all cases: NCI tumour cell line growth inhibition, 48 h
[1] = system: CAKI-1 renal
[2] = system: HOP-92 NSCLC
[3] = system: SF-539 CNS
[4] = system: SNB-75 CNS
[5] = system: RPMI-8226 leukemia
[6] = system: UACC-257 melanoma
[7] = system: UACC-62 melanoma
[8] = system: HL-60(TB) leukemia
[9] = system: MOLT-4 leukemia
[10] = system: LXFL 529 NSCLC
[11] = system: SK-OV-3 ovarian
[12] = system: A498 renal
[13] = system: TK-10 renal
[14] = system: ACHN renal
[15] = system: KM20L2 colon
[16] = system: A549 NSCLC
[17] = system: COLO 205 colon
[18] = system: OVCAR-4 ovarian
[19] = system: U251 CNS
[20] = system: NCI-H522 lung
[21] = system: RXF 393 renal
[22] = system: SK-MEL-5 melanoma
[23] = system: DLD-1 colon
[24] = system: SF-295 CNS
[25] = system: OVCAR-8 ovarian
[26] = system: SK-MEL-28 melanoma
[27] = system: NCI-H460 lung
[28] = system: SR leukemia
[29] = system: NCI-H226 lung
[30] = system: HCT-15 colon
[31] = system: SF-268 CNS
[32] = system: HOP-62 NSCLC
[33] = system: SW-620 colon
[34] = system: HCC-2998 colon
[35] = system: UO-31 renal
[36] = system: HCT-116 colon
[37] = system: EKVX NSCLC
[38] = system: HOP-18 NSCLC
[39] = system: IGROV1 ovarian
[40] = system: SN12C renal
[41] = system: OVCAR-3 ovarian
[42] = system: SNB-19 CNS
[43] = system: HT29 colon
[44] = system: 786-0 renal
[45] = system: RXF-631 renal
[46] = system: KM12 colon
[47] = system: OVCAR-5 ovarian
[48] = system: SNB-78 CNS
[49] = system: CCRF-CEM leukemia
[50] = system: XF 498 CNS
[51] = system: DMS 114 small cell lung
[52] = system: K-562 leukemia
[53] = system: MALME-3M melanoma
[54] = system: NCI-H23 lung
[55] = system: M14 melanoma
[56] = system: LOX IMVI melanoma
[57] = system: SK-MEL-2 melanoma
[58] = system: M19-MEL melanoma
[59] = system: DMS 273 small cell lung

O=C(NCCS(=O)(=O)N1C(=O)C2CCCN2C(=O)[C@@H]1Cc1ccccc1)OCc1ccccc1 (some centres not stated)
TGI [1]: > 100 µM
TGI [2]: > 100 µM
TGI [3]: > 100 µM
TGI [4]: > 100 µM
TGI [5]: 64.4 µM
TGI [6]: > 100 µM
TGI [7]: > 100 µM
TGI [8]: 48.9 µM
TGI [9]: > 100 µM
TGI [10]: > 100 µM
TGI [11]: > 100 µM
TGI [12]: 95.9 µM
TGI [13]: > 100 µM
TGI [14]: > 100 µM
TGI [15]: > 100 µM
TGI [16]: > 100 µM
TGI [17]: 58.4 µM
TGI [18]: > 100 µM
TGI [19]: > 100 µM
TGI [20]: > 100 µM
TGI [21]: > 100 µM
TGI [22]: > 100 µM
TGI [23]: > 100 µM
TGI [24]: > 100 µM
TGI [25]: > 100 µM
TGI [26]: > 100 µM
TGI [27]: > 100 µM
TGI [28]: > 100 µM
TGI [29]: > 100 µM
TGI [30]: > 100 µM
TGI [31]: > 100 µM
TGI [32]: > 100 µM
TGI [33]: > 100 µM
TGI [34]: 73.2 µM
TGI [35]: > 100 µM
TGI [36]: > 100 µM
TGI [37]: > 100 µM
TGI [38]: > 100 µM
TGI [39]: > 100 µM
TGI [40]: > 100 µM
TGI [41]: 70.2 µM
TGI [42]: > 100 µM
TGI [43]: > 100 µM
TGI [44]: > 100 µM
TGI [45]: > 100 µM
TGI [46]: > 100 µM
TGI [47]: > 100 µM
TGI [48]: > 100 µM
TGI [49]: > 100 µM
TGI [50]: 11 µM
TGI [51]: 89.2 µM
TGI [52]: > 100 µM
TGI [53]: > 100 µM
TGI [54]: > 100 µM
TGI [55]: > 100 µM
TGI [56]: > 100 µM

C[CH2][Sn]([CH2]C)([O]C(=O)c1cc(OC)c(OC)c(OC)c1)[O][Sn]([CH2]C)([CH2]C)[O]C(=O)c1cc(OC)c(OC)c(OC)c1
GI50 [1]: 15.7 µM
TGI [1]: 29.8 µM
GI50 [2]: 19.6 µM
TGI [2]: 36.9 µM
GI50 [3]: 27.7 µM
TGI [3]: 74.9 µM
GI50 [4]: 28.6 µM
TGI [4]: > 88.7 µM
GI50 [5]: 28.7 µM
TGI [5]: > 100 µM
GI50 [6]: 21.3 µM
TGI [6]: 52 µM
GI50 [57]: 16.3 µM
TGI [57]: 35.3 µM
GI50 [7]: 19.3 µM
TGI [7]: 36.7 µM
GI50 [8]: 35.1 µM
TGI [8]: > 100 µM
GI50 [9]: 25.8 µM
TGI [9]: > 85.8 µM
GI50 [11]: > 100 µM
TGI [11]: > 100 µM
GI50 [12]: 25.6 µM
TGI [12]: 43.9 µM
GI50 [13]: 18.9 µM
TGI [13]: 33.6 µM
GI50 [14]: 21.2 µM
TGI [14]: 40.8 µM
GI50 [15]: 64.6 µM
TGI [15]: > 100 µM
GI50 [16]: > 100 µM
TGI [16]: > 100 µM
GI50 [17]: 20.3 µM
TGI [17]: 43.6 µM
GI50 [18]: > 100 µM
TGI [18]: > 100 µM
GI50 [19]: 18.2 µM
TGI [19]: 33.1 µM
GI50 [20]: 1.91 µM
TGI [20]: 5.65 µM
GI50 [21]: 12.4 µM
TGI [21]: 27.9 µM
GI50 [22]: 74.4 µM
TGI [22]: > 100 µM
GI50 [23]: 27.9 µM
TGI [23]: > 74.1 µM
GI50 [24]: 76.5 µM
TGI [24]: > 100 µM
GI50 [25]: > 42.8 µM
TGI [25]: > 62.4 µM
GI50 [26]: 18.4 µM
TGI [26]: 33.4 µM
GI50 [27]: > 100 µM
TGI [27]: > 100 µM
GI50 [28]: 36.3 µM
TGI [28]: > 100 µM
GI50 [29]: 27.3 µM
TGI [29]: 57.9 µM
GI50 [30]: 43 µM
TGI [30]: > 79 µM
GI50 [31]: 20.6 µM
TGI [31]: 44.1 µM
GI50 [32]: > 100 µM
TGI [32]: > 100 µM
GI50 [33]: 19.1 µM
TGI [33]: 34.9 µM
GI50 [58]: 31.3 µM
TGI [58]: > 100 µM
GI50 [34]: > 76.1 µM
TGI [34]: > 100 µM
GI50 [35]: > 100 µM
TGI [35]: > 100 µM
GI50 [36]: 68.2 µM
TGI [36]: > 100 µM
GI50 [37]: > 53.9 µM
TGI [37]: > 94.8 µM
GI50 [38]: 22.2 µM
TGI [38]: 42.4 µM
GI50 [39]: > 100 µM
TGI [39]: > 100 µM
GI50 [40]: 44 µM
TGI [40]: 99.4 µM
GI50 [41]: > 64.4 µM
TGI [41]: > 100 µM
GI50 [42]: > 75.1 µM
TGI [42]: > 100 µM
GI50 [43]: 48.1 µM
TGI [43]: > 100 µM
GI50 [44]: 27.4 µM
TGI [44]: > 59.8 µM
GI50 [45]: 24.5 µM
TGI [45]: 53.7 µM
GI50 [46]: > 100 µM
TGI [46]: > 100 µM
GI50 [47]: > 100 µM
TGI [47]: > 100 µM
GI50 [48]: 17 µM
TGI [48]: 41 µM
GI50 [49]: 7.78 µM
TGI [49]: 33.1 µM
GI50 [50]: 16.9 µM
TGI [50]: 31.3 µM
GI50 [51]: 15.1 µM
TGI [51]: 29.1 µM
GI50 [52]: 20.9 µM
TGI [52]: > 64.9 µM
GI50 [53]: 17.3 µM
TGI [53]: 32.2 µM
GI50 [54]: 16.7 µM
TGI [54]: 36.5 µM
GI50 [55]: 32.5 µM
TGI [55]: > 78.9 µM
GI50 [59]: 84.5 µM
TGI [59]: > 100 µM
GI50 [56]: 18.5 µM
TGI [56]: 33.2 µM
